Results taken from the supplement of paper PMC10307832.

Experiments:
Experiment in all cases: relative viability (nuclei count vs DMSO), 5 days (fraction); higher = more cells survive
RERF-LC-KJ = tested on: RERF-LC-KJ
Summary of the method: (§1)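 Relative viability divides the nuclei count in treated wells by that in vehicle wells. Lung cancer cell lines were seeded in 1536-well plates, dosed by pin tool the next day, and fixed and stained after 5 days in one step with final 0.05% Triton X-100, 1% formaldehyde and 1 ug/ml Hoechst. Dosing was a single drug or a fixed anchor-drug dose plus five library-drug doses (not always all listed) in √10 steps, and values are medians of duplicate plates imaged at 4×.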

NCI-H1944 = tested on: NCI-H1944
Summary of the method: as §1

NCI-H650 = tested on: NCI-H650
Summary of the method: as §1

NCI-H838 = tested on: NCI-H838
Summary of the method: as §1

NCI-H520 = tested on: NCI-H520
Summary of the method: as §1

PC-3 [JPC-3] = tested on: PC-3 [JPC-3]
Summary of the method: as §1

NCI-H1651 = tested on: NCI-H1651
Summary of the method: as §1

NCI-H1299 = tested on: NCI-H1299
Summary of the method: as §1

NCI-H1703 = tested on: NCI-H1703
Summary of the method: as §1

IA-LM = tested on: IA-LM
Summary of the method: as §1

A549 = tested on: A549
Summary of the method: as §1

Calu-6 = tested on: Calu-6
Summary of the method: as §1

EBC-1 = tested on: EBC-1
Summary of the method: as §1

SMILES: Nc1ccn([C@@H]2O[C@H](CO)[C@@H](O)[C@@H]2O)c(=O)n1 [Cytarabine] + CS(=O)(=O)N1CCN(Cc2cc3nc(-c4cccc5[nH]ncc45)nc(N4CCOCC4)c3s2)CC1 [Pictilisib] (partner 1 µM)
- relative viability (RERF-LC-KJ; first compound 0.005 µM): 0.493
- relative viability (RERF-LC-KJ; first compound 0.01581 µM): 0.459
- relative viability (RERF-LC-KJ; first compound 0.05 µM): 0.487
- relative viability (RERF-LC-KJ; first compound 0.1581 µM): 0.428
- relative viability (RERF-LC-KJ; first compound 0.5 µM): 0.287
- relative viability (NCI-H1944; first compound 0.005 µM): 0.29
- relative viability (NCI-H1944; first compound 0.01581 µM): 0.267
- relative viability (NCI-H1944; first compound 0.05 µM): 0.236
- relative viability (NCI-H1944; first compound 0.1581 µM): 0.201
- relative viability (NCI-H1944; first compound 0.5 µM): 0.189
- relative viability (NCI-H650; first compound 0.005 µM): 0.831
- relative viability (NCI-H650; first compound 0.01581 µM): 0.688
- relative viability (NCI-H650; first compound 0.05 µM): 0.419
- relative viability (NCI-H650; first compound 0.1581 µM): 0.224
- relative viability (NCI-H650; first compound 0.5 µM): 0.214
- relative viability (NCI-H838; first compound 0.005 µM): 0.334
- relative viability (NCI-H838; first compound 0.01581 µM): 0.495
- relative viability (NCI-H838; first compound 0.05 µM): 0.435
- relative viability (NCI-H838; first compound 0.1581 µM): 0.257
- relative viability (NCI-H838; first compound 0.5 µM): 0.243
- relative viability (NCI-H520; first compound 0.005 µM): 0.228
- relative viability (NCI-H520; first compound 0.01581 µM): 0.276
- relative viability (NCI-H520; first compound 0.05 µM): 0.288
- relative viability (NCI-H520; first compound 0.1581 µM): 0.27
- relative viability (NCI-H520; first compound 0.5 µM): 0.309
- relative viability (PC-3 [JPC-3]; first compound 0.005 µM): 0.695
- relative viability (PC-3 [JPC-3]; first compound 0.01581 µM): 0.673
- relative viability (PC-3 [JPC-3]; first compound 0.05 µM): 0.647
- relative viability (PC-3 [JPC-3]; first compound 0.1581 µM): 0.448
- relative viability (PC-3 [JPC-3]; first compound 0.5 µM): 0.479
- relative viability (NCI-H1651; first compound 0.005 µM): 0.446
- relative viability (NCI-H1651; first compound 0.01581 µM): 0.522
- relative viability (NCI-H1651; first compound 0.05 µM): 0.533
- relative viability (NCI-H1651; first compound 0.1581 µM): 0.17
- relative viability (NCI-H1651; first compound 0.5 µM): 0.165
- relative viability (NCI-H1299; first compound 0.005 µM): 0.819
- relative viability (NCI-H1299; first compound 0.01581 µM): 0.839
- relative viability (NCI-H1299; first compound 0.05 µM): 0.959
- relative viability (NCI-H1299; first compound 0.1581 µM): 0.656
- relative viability (NCI-H1299; first compound 0.5 µM): 0.645
- relative viability (NCI-H1703; first compound 0.005 µM): 0.263
- relative viability (NCI-H1703; first compound 0.01581 µM): 0.182
- relative viability (NCI-H1703; first compound 0.05 µM): 0.194
- relative viability (NCI-H1703; first compound 0.1581 µM): 0.149
- relative viability (NCI-H1703; first compound 0.5 µM): 0.158
- relative viability (IA-LM; first compound 0.005 µM): 0.296
- relative viability (IA-LM; first compound 0.01581 µM): 0.336
- relative viability (IA-LM; first compound 0.05 µM): 0.338
- relative viability (IA-LM; first compound 0.1581 µM): 0.154
- relative viability (IA-LM; first compound 0.5 µM): 0.0939
- relative viability (A549; first compound 0.005 µM): 0.506
- relative viability (A549; first compound 0.05 µM): 0.539
- relative viability (A549; first compound 0.1581 µM): 0.0667
- relative viability (A549; first compound 0.5 µM): 0.039
- relative viability (Calu-6; first compound 0.005 µM): 0.741
- relative viability (Calu-6; first compound 0.01581 µM): 0.618
- relative viability (Calu-6; first compound 0.05 µM): 0.775
- relative viability (Calu-6; first compound 0.1581 µM): 0.371
- relative viability (Calu-6; first compound 0.5 µM): 0.203
- relative viability (EBC-1; first compound 0.005 µM): 0.37
- relative viability (EBC-1; first compound 0.01581 µM): 0.29
- relative viability (EBC-1; first compound 0.05 µM): 0.239
- relative viability (EBC-1; first compound 0.1581 µM): 0.215
- relative viability (EBC-1; first compound 0.5 µM): 0.193

SMILES: Nc1ccn([C@@H]2O[C@H](CO)[C@@H](O)[C@@H]2O)c(=O)n1 [Cytarabine] + C[C@@H](Oc1cc(-c2cnn(C3CCNCC3)c2)cnc1N)c1c(Cl)ccc(F)c1Cl [Crizotinib] (partner 1 µM)
- relative viability (RERF-LC-KJ; first compound 0.005 µM): 0.853
- relative viability (RERF-LC-KJ; first compound 0.01581 µM): 0.845
- relative viability (RERF-LC-KJ; first compound 0.05 µM): 0.759
- relative viability (RERF-LC-KJ; first compound 0.1581 µM): 0.502
- relative viability (RERF-LC-KJ; first compound 0.5 µM): 0.4
- relative viability (NCI-H1944; first compound 0.005 µM): 0.9
- relative viability (NCI-H1944; first compound 0.01581 µM): 0.466
- relative viability (NCI-H1944; first compound 0.05 µM): 0.367
- relative viability (NCI-H1944; first compound 0.1581 µM): 0.2
- relative viability (NCI-H1944; first compound 0.5 µM): 0.176
- relative viability (NCI-H650; first compound 0.005 µM): 0.664
- relative viability (NCI-H650; first compound 0.01581 µM): 0.519
- relative viability (NCI-H650; first compound 0.05 µM): 0.353
- relative viability (NCI-H650; first compound 0.1581 µM): 0.259
- relative viability (NCI-H650; first compound 0.5 µM): 0.177
- relative viability (NCI-H838; first compound 0.005 µM): 0.715
- relative viability (NCI-H838; first compound 0.01581 µM): 0.877
- relative viability (NCI-H838; first compound 0.05 µM): 0.699
- relative viability (NCI-H838; first compound 0.1581 µM): 0.339
- relative viability (NCI-H838; first compound 0.5 µM): 0.224
- relative viability (NCI-H520; first compound 0.005 µM): 0.56
- relative viability (NCI-H520; first compound 0.01581 µM): 0.758
- relative viability (NCI-H520; first compound 0.05 µM): 0.831
- relative viability (NCI-H520; first compound 0.1581 µM): 0.56
- relative viability (NCI-H520; first compound 0.5 µM): 0.469
- relative viability (PC-3 [JPC-3]; first compound 0.005 µM): 0.781
- relative viability (PC-3 [JPC-3]; first compound 0.01581 µM): 0.837
- relative viability (PC-3 [JPC-3]; first compound 0.05 µM): 0.78
- relative viability (PC-3 [JPC-3]; first compound 0.1581 µM): 0.712
- relative viability (PC-3 [JPC-3]; first compound 0.5 µM): 0.617
- relative viability (NCI-H1651; first compound 0.005 µM): 0.869
- relative viability (NCI-H1651; first compound 0.01581 µM): 0.904
- relative viability (NCI-H1651; first compound 0.05 µM): 0.834
- relative viability (NCI-H1651; first compound 0.1581 µM): 0.584
- relative viability (NCI-H1651; first compound 0.5 µM): 0.549
- relative viability (NCI-H1299; first compound 0.005 µM): 0.956
- relative viability (NCI-H1299; first compound 0.01581 µM): 0.99
- relative viability (NCI-H1299; first compound 0.05 µM): 1.03
- relative viability (NCI-H1299; first compound 0.1581 µM): 0.961
- relative viability (NCI-H1299; first compound 0.5 µM): 0.943
- relative viability (NCI-H1703; first compound 0.005 µM): 0.484
- relative viability (NCI-H1703; first compound 0.01581 µM): 0.375
- relative viability (NCI-H1703; first compound 0.05 µM): 0.299
- relative viability (NCI-H1703; first compound 0.1581 µM): 0.148
- relative viability (NCI-H1703; first compound 0.5 µM): 0.205
- relative viability (IA-LM; first compound 0.005 µM): 0.864
- relative viability (IA-LM; first compound 0.01581 µM): 0.62
- relative viability (IA-LM; first compound 0.05 µM): 0.729
- relative viability (IA-LM; first compound 0.1581 µM): 0.414
- relative viability (IA-LM; first compound 0.5 µM): 0.121
- relative viability (A549; first compound 0.005 µM): 0.541
- relative viability (A549; first compound 0.01581 µM): 0.53
- relative viability (A549; first compound 0.05 µM): 0.449
- relative viability (A549; first compound 0.1581 µM): 0.0819
- relative viability (A549; first compound 0.5 µM): 0.0747
- relative viability (Calu-6; first compound 0.005 µM): 0.722
- relative viability (Calu-6; first compound 0.01581 µM): 0.706
- relative viability (Calu-6; first compound 0.05 µM): 0.623
- relative viability (Calu-6; first compound 0.1581 µM): 0.433
- relative viability (Calu-6; first compound 0.5 µM): 0.259
- relative viability (EBC-1; first compound 0.01581 µM): 0.171
- relative viability (EBC-1; first compound 0.05 µM): 0.178
- relative viability (EBC-1; first compound 0.1581 µM): 0.149
- relative viability (EBC-1; first compound 0.5 µM): 0.159
